Laboratory results: US8946216B2, “Indazole derivatives useful as ERK inhibitors” (Merck Sharp & Dohme Corp., priority 2010, dated 2015)

Key:
ERK protein = ERK protein (Homo sapiens, UniProt P28482); test: TdF (Temperature Dependence Fluorescence, thermal shift) assay for ERK; type: binding; settings: read-out: TdF Kd; 3 μM ERK protein, 15, 50 or 100 μM compound, Sypro Orange; Kd calculated from ΔTm; uncertainty estimated ±50%
From the text: Assays: TdF Assay for ERK
The SAR (Structure Activity Relationship) for ERK ligands covered by this invention was interrogated using the TdF (Temperature Dependence Fluorescence) assay or best known as thermal shift assay. The TdF assay was mainly conducted in the 96-well based CHROMO-4 real time fluorescence plate reader (BioRad). The Sypro Orange (Sigma-Aldrich), environmentally sensitive fluorescence dye, was used to monitor the protein folding-unfolding transition. Protein-ligand binding was gauged by the change (or shift) in the unfolding transition temperature (ΔTm) acquired at protein alone with respect to protein in the presence of ligand of interest.
Compound of interest was first prepared in DMSO stock (typical concentration: 10 mM). Sample of 20 μL was then added into the 96-well PCR plate, where it consisted of 3 μM. […] Final percentage of DMSO resided in the sample was 2%. The sample plate was heated from 30° C. to 90° C. with thermal ramping rate of 1 ° C./min. The fluorescence signals were acquired with excitation and emission wavelengths centered at 490 and 560 nm respectively. The instrument thermal stability was ±0.2° C. The melting temperatures (Tm) for ERK protein under aforementioned conditions occurred at 61.0±0.2° C. and 64.8±0.2° C. respectively.
Theoretical Basis for TdF-based Ligand Binding Affinity Constant
The derivation of TdF-based ligand binding affinity constant (Kd) followed closely those previously formulated by Brandts and Lin [2]. In brief, the binding constant of the ligand at the Tm is expressed as below: […]
where T0 is the midpoint of unfolding for unliganded protein and Tm is the midpoint of unfolding in presence of ligand. [LTm] is free ligand at Tm. The ΔHu and ΔCpu are the enthalpy of unfolding and heat capacity change of unfolding for the protein respectively. Following algorithm derived by Winsor and coworker, the T0, ΔHu and ΔCpu can be determined separately from nonlinear regression fitting the protein alone melting curve:
Where F(T) is the observed fluorescence intensity at any temperature T, Yn and Yu are the predicted fluorescence intensities for fully folded and unfolded protein, respectively; mn and mu are slope correction for changes in Yn and Yu with respect to changes in temperature (analogously replace T0 with Tm in the above equation for liganded protein to yield Tm).
where ΔHL(T) is the van't Hoff enthalpy of ligand binding at temperature T and ΔCpL is the heat capacity upon ligand binding. For simplicity, the ΔCpL and ΔHL(T) were set to zero and −7 kcal/mol respectively. The uncertainty in the calculated ligand binding affinity constant was estimated to be ±50%.

[1] = biological target: unphosphorylated Mouse ERK2 protein (inactive ERK2) (Mus musculus, UniProt P63085); test: Coupled ERK2 (cERK) assay, coupled MEK1/ERK2 IMAP; type: biochemical; settings: 30 min preincubation with inactive ERK2, then activation by human MEK1; 30 μM ATP; fluorescence polarization; read-out: cERK2 IC50
From the text: • 1. M. W. Pantoliana, E. C. Petrella, J. D. Kwasnoski, V. S. Lobanov, J. Myslik, E. Graf, T. Carver, E. Asel, B. A. Springer, P. Lane, F. R. Salemme, High-density miniaturized thermal shift assays as a general strategy for drug discovery, J. Biomol. Screen 6 (2001) 429-440 • 2. J. F. Brandts, L.-N. Lin, Study of strong to ultratight protein interactions using differential scanning calorimetry, Biochemistry 29 (1990) 6927-6940 • 3. Mayhood, T. W., Windsor, W. T., Ligand binding affinity determined by temperature-dependent circular dichroism: Cyclin-dependent kinase 2 inhibitors, Analytical Biochemistry 345 (2005) 187-197 Coupled ERK2 (cERK) Assay:
14 μl of kinase buffer (10 mM Tris.HCl pH 7.2, 10 mM MgCl2, 0.01% Tween-20, 1 mM DTT) containing 0.4 ng unphosphorylated Mouse ERK2 protein was added to each well of a black 384-well assay plate. […] DMSO concentration during initial incubation is 6.7%. ERK2 activity was determined to be insensitive to DMSO concentrations up to 20%. ERK2 was then activated and it's kinase activity measured by the addition of 10 μl kinase buffer with the following components (final concentration per reaction): 2 ng active (phosphorylated) human MEK1 protein and 4 μM (total) ERK2 IMAP substrate peptides (3.9 μM unlabeled IPTTPITTTYFFFK-CONH2 and 100 nM IPTTPITTTYFFFK(5-carboxyfluorescein)-CONH2) and 30 μM ATP. DMSO concentration during ERK activation was 4%. After one hour, reactions were terminated by addition of 60 μl IMAP detections beads in binding buffer (Molecular Devices). Binding was allowed to equilibrate for 30 minutes before reading the plate on an LJL Analyst Fluorescence Polarization plate reader. […] Active compounds were reconfirmed in an independent assay.

Sequence of ERK protein (P28482 2-360): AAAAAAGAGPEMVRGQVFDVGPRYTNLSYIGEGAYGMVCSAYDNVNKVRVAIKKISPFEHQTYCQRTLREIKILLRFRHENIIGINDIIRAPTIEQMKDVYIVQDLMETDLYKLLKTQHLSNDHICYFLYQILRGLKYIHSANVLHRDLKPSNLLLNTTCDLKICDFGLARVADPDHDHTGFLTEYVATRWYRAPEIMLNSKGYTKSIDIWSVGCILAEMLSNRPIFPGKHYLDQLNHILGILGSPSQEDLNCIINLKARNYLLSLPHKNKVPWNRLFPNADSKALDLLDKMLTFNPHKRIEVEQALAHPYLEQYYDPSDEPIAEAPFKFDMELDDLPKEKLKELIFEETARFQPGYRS
Sequence of unphosphorylated Mouse ERK2 protein (inactive ERK2) (P63085 whole entry): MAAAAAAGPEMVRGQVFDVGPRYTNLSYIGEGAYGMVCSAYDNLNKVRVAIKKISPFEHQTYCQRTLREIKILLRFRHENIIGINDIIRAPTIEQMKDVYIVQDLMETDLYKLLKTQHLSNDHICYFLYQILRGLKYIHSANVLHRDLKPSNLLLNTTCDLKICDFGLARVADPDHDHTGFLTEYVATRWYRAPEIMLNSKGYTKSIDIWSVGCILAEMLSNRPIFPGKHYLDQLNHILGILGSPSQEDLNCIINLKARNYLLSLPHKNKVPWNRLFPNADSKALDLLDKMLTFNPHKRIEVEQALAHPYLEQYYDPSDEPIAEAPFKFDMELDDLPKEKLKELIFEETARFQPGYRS

SMILES	Kd (ERK protein) [nM]	IC50 [1] [nM]
COc1cc(F)c(CN2CCOC(C(=O)Nc3ccc4[nH]nc(-c5ccncc5)c4c3)C2)cc1OC (centres unmarked) [Compound 40, 4-[(2-FLUORO-4,5-DIMETHOXYPHENYL)METHYL]-N-[3-(4-PYRIDINYL)-1H-INDAZOL-5-YL]-2-MORPHOLINECARBOXAMIDE]	1190	1110
COc1cccc(CN2CCOC(C(=O)Nc3ccc4[nH]nc(-c5ccncc5)c4c3)C2)c1 (centres unmarked) [Compound 28, 4-[(3-METHOXYPHENYL)METHYL]-N-[3-(4-PYRIDINYL)-1H-INDAZOL-5-YL]-2-MORPHOLINECARBOXAMIDE]	3620	290
O=C(NCc1ccccc1)c1n[nH]c2ccc(NC(=O)C3CN(Cc4ccccc4F)CCS3)cc12 (centres unmarked) [Compound 77, 5-[[[4-[(2-FLUOROPHENYL)METHYL]-2-THIOMORPHOLINYL]CARBONYL]AMINO]-N-(PHENYLMETHYL)-1H-INDAZOLE-3-CARBOXAMIDE]	1800	3100
O=C(Nc1ccc2[nH]nc(-c3ccncc3)c2c1)C1CN(Cc2ccccn2)CCS1 (centres unmarked) [Compound 12, N-[3-(4-PYRIDINYL)-1H-INDAZOL-5-YL]-4-(2-PYRIDINYLMETHYL)-2-THIOMORPHOLINECARBOXAMIDE]	674	1310
O=C(Nc1ccc2[nH]nc(-c3ccncc3)c2c1)C1CN(Cc2cccnc2)CCS1 (centres unmarked) [Compound 8, N-[3-(4-PYRIDINYL)-1H-INDAZOL-5-YL]-4-(3-PYRIDINYLMETHYL)-2-THIOMORPHOLINECARBOXAMIDE]	4610	1070
O=C(Nc1ccc2[nH]nc(-c3ccncc3)c2c1)C1CN(Cc2ccsc2)CCO1 (centres unmarked) [Compound 3, N-[3-(4-PYRIDINYL)-1H-INDAZOL-5-YL]-4-(3-THIENYLMETHYL)-2-MORPHOLINECARBOXAMIDE]	77	87.6
COc1ccc(CN2CCOC(C(=O)Nc3ccc4[nH]nc(-c5ccncc5)c4c3)C2)cc1 (centres unmarked) [Compound 33, 4-[(4-METHOXYPHENYL)METHYL]-N-[3-(4-PYRIDINYL)-1H-INDAZOL-5-YL]-2-MORPHOLINECARBOXAMIDE]	1140	226
O=C(Nc1ccc2[nH]nc(-c3ccncc3)c2c1)C1CN(Cc2ccsc2)CCS1 (centres unmarked) [Compound 14, N-[3-(4-PYRIDINYL)-1H-INDAZOL-5-YL]-4-(3-THIENYLMETHYL)-2-THIOMORPHOLINECARBOXAMIDE]	34	183
O=C(Nc1ccc2[nH]nc(-c3ccncc3)c2c1)C1CN(Cc2cc(C(F)(F)F)ccc2F)CCO1 (centres unmarked) [Compound 42, 4-[[2-FLUORO-5-(TRIFLUOROMETHYL)PHENYL]METHYL]-N-[3-(4-PYRIDINYL)-1H-INDAZOL-5-YL]-2-MORPHOLINECARBOXAMIDE]	1260	2660
N#Cc1cccc(CN2CCOC(C(=O)Nc3ccc4[nH]nc(-c5ccncc5)c4c3)C2)c1 (centres unmarked) [Compound 31, 4-[(3-CYANOPHENYL)METHYL]-N-[3-(4-PYRIDINYL)-1H-INDAZOL-5-YL]-2-MORPHOLINECARBOXAMIDE]	2720	1180
O=C(Nc1ccc2[nH]nc(-c3ccncc3)c2c1)C1CCCNC1 (centres unmarked) [Compound 25, N-[3-(4-PYRIDINYL)-1H-INDAZOL-5-YL]-3-PIPERIDINECARBOXAMIDE]	4500	631

Continued by falling Kd (ERK protein), values first:

Kd (ERK protein) [nM]	IC50 [1] [nM]	SMILES
1100	4870	CN1CCCC(C(=O)Nc2ccc3[nH]nc(-c4ccncc4)c3c2)C1 (centres unmarked) [Compound 26, 1-METHYL-N-[3-(4-PYRIDINYL)-1H-INDAZOL-5-YL]-3-PIPERIDINECARBOXAMIDE]
910	1780	O=C(Nc1ccc2[nH]nc(-c3ccncc3)c2c1)C1CN(Cc2ccc(F)c(Cl)c2)CCO1 (centres unmarked) [Compound 49, 4-[(3-CHLORO-4-FLUOROPHENYL)METHYL]-N-[3-(4-PYRIDINYL)-1H-INDAZOL-5-YL]-2-MORPHOLINECARBOXAMIDE]
775	383	N#Cc1ccccc1CN1CCOC(C(=O)Nc2ccc3[nH]nc(-c4ccncc4)c3c2)C1 (centres unmarked) [Compound 32, 4-[(2-CYANOPHENYL)METHYL]-N-[3-(4-PYRIDINYL)-1H-INDAZOL-5-YL]-2-MORPHOLINECARBOXAMIDE]
727	400	O=C(Nc1ccc2[nH]nc(-c3ccncc3)c2c1)C1CN(Cc2cc(F)ccc2F)CCO1 (centres unmarked) [Compound 51, 4-[(2,5-DIFLUOROPHENYL)METHYL]-N-[3-(4-PYRIDINYL)-1H-INDAZOL-5-YL]-2-MORPHOLINECARBOXAMIDE]
715	4760	O=C(Nc1ccc2[nH]nc(-c3ccncc3)c2c1)C1CN(Cc2c(F)cccc2C(F)(F)F)CCO1 (centres unmarked) [Compound 39, 4-[[2-FLUORO-6-(TRIFLUOROMETHYL)PHENYL]METHYL]-N-[3-(4-PYRIDINYL)-1H-INDAZOL-5-YL]-2-MORPHOLINECARBOXAMIDE]
584	419	O=C(Nc1ccc2[nH]nc(-c3ccncc3)c2c1)C1CN(Cc2ccc(Cl)cc2F)CCO1 (centres unmarked) [Compound 41, 4-[(4-CHLORO-2-FLUOROPHENYL)METHYL]-N-[3-(4-PYRIDINYL)-1H-INDAZOL-5-YL]-2-MORPHOLINECARBOXAMIDE]
250	350	CNC(=O)c1n[nH]c2ccc(NC(=O)C3CN(Cc4ccccc4F)CCS3)cc12 (centres unmarked) [Compound 75, 5-[[[4-[(2-FLUOROPHENYL)METHYL]-2-THIOMORPHOLINYL]CARBONYL]AMINO]-N-METHYL-1H-INDAZOLE-3-CARBOXAMIDE]
201	929	O=C(Nc1ccc2[nH]nc(-c3ccncc3)c2c1)C1CN(Cc2cscn2)CCS1 (centres unmarked) [Compound 13, N-[3-(4-PYRIDINYL)-1H-INDAZOL-5-YL]-4-(4-THIAZOLYLMETHYL)-2-THIOMORPHOLINECARBOXAMIDE]
84.1	–	O=C(Nc1ccc2[nH]nc(-c3ccncc3)c2c1)C1CN(Cc2ccccc2)CCC1O (centres unmarked) [Compound 71, 4-HYDROXY-1-(PHENYLMETHYL)-N-[3-(4-PYRIDINYL)-1H-INDAZOL-5-YL]-3-PIPERIDINECARBOXAMIDE]
30	168	O=C(Nc1ccc2[nH]nc(-c3ccncc3)c2c1)C1CNCCN1c1ccccc1 (centres unmarked) [Compound 54, 1-PHENYL-N-[3-(4-PYRIDINYL)-1H-INDAZOL-5-YL]-2-PIPERAZINECARBOXAMIDE]
20	239	O=C(Nc1ccc2[nH]nc(-c3ccncc3)c2c1)C1CCCN(Cc2ccccc2)C1 (centres unmarked) [Compound 24, 1-(PHENYLMETHYL)-N-[3-(4-PYRIDINYL)-1H-INDAZOL-5-YL]-3-PIPERIDINECARBOXAMIDE]
17	96.9	O=C(Nc1ccc2[nH]nc(-c3ccncc3)c2c1)C1CN(Cc2ccccc2Br)CCO1 (centres unmarked) [Compound 7, 4-[(2-BROMOPHENYL)METHYL]-N-[3-(4-PYRIDINYL)-1H-INDAZOL-5-YL]-2-MORPHOLINECARBOXAMIDE]
3	158	O=C(Nc1ccc2[nH]nc(-c3ccncc3)c2c1)C1CCCN(Cc2ccccc2Cl)C1 (centres unmarked) [Compound 23, 1-[(2-CHLOROPHENYL)METHYL]-N-[3-(4-PYRIDINYL)-1H-INDAZOL-5-YL]-3-PIPERIDINECARBOXAMIDE]
